Laboratory results published in EP4752152A1, “STEROID COMPOUND, AND PREPARATION METHOD THEREFOR AND USE THEREOF” (Cholesgen (Shanghai) Co.Ltd., priority 2023, dated 2025).
pIC50: −log10 of the molar value. Converted amounts (≈) assume the structure as drawn.

Experiments:
[1] = test system: Fatty Acid Synthase (FASN) gene; assay: Inhibition of FASN gene expression (qPCR) in Huh-7 cells; type: cell-based, human; details: Homo sapiens, Huh-7, 16 h, Huh-7 cells, starvation medium, 16 hours, qPCR; class symbols; read-out: FASN IC50
In short: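 Huh-7 cells switched to starvation DMEM (5% LPDS, 2 µM lovastatin, 10 µM mevalonate) and treated 16 h with compound, top 3000 nM, 3-fold dilutions, 5 concentrations. FASN mRNA by RT-qPCR; inhibition relative to DMSO, IC50 from four-parameter fit.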

[2] = Solubility in fasted-state simulated intestinal fluid (FaSSIF); type: physicochemical; details: FaSSIF, pH 6.5, fassif, kinetic from dmso stock, FaSSIF pH 6.5, 300 µM sample solution, room temperature
In short: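 Compound from 10.0 mM DMSO stock added to FaSSIF (phosphate/NaCl buffer, pH 6.5) at 300 µM nominal, shaken 1 h at room temperature, 1000 rpm. After centrifugation, supernatant concentration quantified by LC-MS/MS.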

[3] = Metabolic stability experiment of mouse liver microsomes; type: in vitro ADME
Protocol: PB solution (100 mM), MgCl2 solution (300 mM), NADPH solution (2.04 mM), and mouse liver microsome (SHQY catalog number: M1000, batch number: 2110330) solution (1.00 mg/mL) were prepared respectively. […] Then, 100 µL of mouse liver microsome solution was added to a 96-well sample plate. For the 0 min sample, acetonitrile solution containing the internal standard was first added; then, 2 µL of 100 µM working solution was added; followed by the addition of 98 µL of pre-warmed 2.04 mM NADPH at 37°C. For the 5 min, 15 min, 30 min, 45 min, and 60 min samples, 2 µL of 100 µM working solution was first added; followed by the addition of 98 µL of pre-warmed 2.04 mM NADPH at 37°C to initiate the reaction; upon reaching the respective time points, a solution of acetonitrile containing the internal standard was added to terminate the reaction. For the NCF60 sample, 2 µL of 100 µM working solution was first added; followed by the addition of 98 µL of pre-warmed PB at 37°C to initiate the reaction; upon reaching the respective time points, a solution of acetonitrile containing the internal standard was added to terminate the reaction. During the experiment, all samples were incubated in a 37°C water bath. All samples were shaken on an oscillator at 800 rpm for 10 min, then centrifuged at 3200 g for 20 min. The supernatant was aspirated, diluted with deionized water at the corresponding ratio, and analyzed by LC-MS/MS. The remaining percentage of the compound at each time point was obtained by dividing the peak area ratio of the compound at 5, 15, 30, 45, and 60 min by the peak area ratio at 0 min. The half-life (T1/2) of the compound was then calculated using Excel. Table 2: Mouse liver microsome stability results of compounds from some examples

SREBP pathway = assay: SREBP luciferase reporter gene system (SRE-luciferase assay); type: cell-based, human; details: Homo sapiens, Huh-7, 16 h, Huh-7/SRE-luc cells, sterol-deficient medium, 0.01-10 µM
In short: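 Huh-7 cells stably carrying LDLR promoter-luciferase plus GFP were treated 16 h in sterol-deficient medium (5% lipoprotein-deficient serum, 2 µM lovastatin, 10 µM mevalonic acid) at 0.01–10 µM. Luciferase/GFP ratio measured as pathway activity; inhibition versus DMSO fitted to a four-parameter model for IC50.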

COc1cc(F)ccc1[C@@H](O)CCC[C@@H](C)[C@H]1CC[C@H]2[C@H]3[C@H](CC[C@]12C)[C@@]1(C)CC[C@H](O)[C@H](O)[C@@H]1CC3(F)F [Compound 140, (1R,3aS,3bS,5aR,6R,7S,9aR,9bS,11aR)-4,4-difluoro-1-[(2R,6S)-6-(4-fluoro-2-methoxyphenyl)-6-hydroxyhexan-2-yl]-9a,11a-dimethylhexadecahydro-1H-cyclopenta[1,2-a]phenanthrene-6,7-diol]
pIC50 [1]: > 6.70
solubility at 1 h [2]: 178 µM (≈ 98.4 µg/mL)
half-life at 1 µM [3]: 5.35 h
IC50 (SREBP pathway): 0.11 µM

COc1cc(F)ccc1[C@H](O)CCC[C@@H](C)[C@H]1CC[C@H]2[C@H]3[C@H](CC[C@]12C)[C@@]1(C)CC[C@H](O)[C@H](O)[C@@H]1CC3(F)F [Compound 141, (1R,3aS,3bS,5aR,6R,7S,9aR,9bS,11aR)-4,4-difluoro-1-[(2R,6R)-6-(4-fluoro-2-methoxyphenyl)-6-hydroxyhexan-2-yl]-9a,11a-dimethylhexadecahydro-1H-cyclopenta[1,2-a]phenanthrene-6,7-diol]
pIC50 [1]: > 6.70
solubility at 1 h [2]: 150 µM (≈ 82.9 µg/mL)
half-life at 1 µM [3]: 4.85 h
IC50 (SREBP pathway): 0.017 µM

COc1cccc(F)c1[C@H](O)CCC[C@@H](C)[C@H]1CC[C@H]2[C@H]3[C@H](CC[C@]12C)[C@@]1(C)CC[C@H](O)[C@H](O)[C@@H]1CC3(F)F [Compound 128, (1R,3aS,3bS,5aR,6R,7S,9aR,9bS,11aR)-4,4-difluoro-1-[(2R,6R)-6-(2-fluoro-6-methoxyphenyl)-6-hydroxyhexan-2-yl]-9a,11a-dimethylhexadecahydro-1H-cyclopenta[1,2-a]phenanthrene-6,7-diol]
pIC50 [1]: 6.30 to 6.70
solubility at 1 h [2]: 199 µM (≈ 110 µg/mL)
half-life at 1 µM [3]: > 3.1 h
IC50 (SREBP pathway): 0.139 µM

COc1cccc(F)c1[C@@H](O)CCC[C@@H](C)[C@H]1CC[C@H]2[C@H]3[C@H](CC[C@]12C)[C@@]1(C)CC[C@H](O)[C@H](O)[C@@H]1CC3(F)F [Compound 127, (1R,3aS,3bS,5aR,6R,7S,9aR,9bS,11aR)-4,4-difluoro-1-[(2R,6S)-6-(2-fluoro-6-methoxyphenyl)-6-hydroxyhexan-2-yl]-9a,11a-dimethylhexadecahydro-1H-cyclopenta[1,2-a]phenanthrene-6,7-diol]
pIC50 [1]: 6.30 to 6.70
solubility at 1 h [2]: 209 µM (≈ 116 µg/mL)
half-life at 1 µM [3]: 1.87 h
IC50 (SREBP pathway): 0.07 µM

COc1ccc(C(O)CCC[C@@H](C)[C@H]2CC[C@H]3[C@H]4[C@H](CC[C@]23C)[C@@]2(C)CC[C@H](O)[C@H](O)[C@@H]2CC4(F)F)cc1 (stereo partly drawn) [Compound 50, (1R,3aS,3bS,5aR,6R,7S,9aR,9bS,11aR)-4,4-difluoro-1-[(2R)-6-(4-methoxyphenyl)-6-hydroxyhexan-2-yl]-9a,11a-dimethylhexadecahydro-1H-cyclopenta[1,2-a]phenanthrene-6,7-diol]
solubility at 1 h [2]: 248 µM (≈ 132 µg/mL)
half-life at 1 µM [3]: 1.8 h
IC50 (SREBP pathway): 0.188 µM

COc1nc(F)ccc1C(O)CCC[C@@H](C)[C@H]1CC[C@H]2[C@H]3[C@H](CC[C@]12C)[C@@]1(C)CC[C@H](O)[C@H](O)[C@@H]1CC3(F)F (stereo partly drawn) [Compound 108, (1R,3aS,3bS,5aR,6R,7S,9aR,9bS,11aR)-4,4-difluoro-1-[(2R)-6-(6-fluoro-2-methoxypyridin-3-yl)-6-hydroxyhexan-2-yl]-9a,11a-dimethylhexadecahydro-1H-cyclopenta[1,2-a]phenanthrene-6,7-diol]
pIC50 [1]: > 6.70
solubility at 1 h [2]: 303 µM (≈ 168 µg/mL)
half-life at 1 µM [3]: 3.08 h
IC50 (SREBP pathway): 0.0359 µM

COc1c(F)cccc1C(O)CCC[C@@H](C)[C@H]1CC[C@H]2[C@H]3[C@H](CC[C@]12C)[C@@]1(C)CC[C@H](O)[C@H](O)[C@@H]1CC3(F)F (stereo partly drawn) [Compound 46, (1R,3aS,3bS,5aR,6R,7S,9aR,9bS,11aR)-4,4-difluoro-1-[(2R)-6-(2-methoxy-3-fluorophenyl)-6-hydroxyhexan-2-yl]-9a,11a-dimethylhexadecahydro-1H-cyclopenta[1,2-a]phenanthrene-6,7-diol]
solubility at 1 h [2]: 277 µM (≈ 153 µg/mL)
half-life at 1 µM [3]: 2.6 h
IC50 (SREBP pathway): 0.07 µM

C[C@H](CCCC(O)c1ccccc1OC(F)(F)F)[C@H]1CC[C@H]2[C@H]3[C@H](CC[C@]12C)[C@@]1(C)CC[C@H](O)[C@H](O)[C@@H]1CC3(F)F (stereo partly drawn) [Compound 1, (1R,3aS,3bS,5aR,6R,7S,9aR,9bS,11aR)-4,4-difluoro-1-[(2R)-6-hydroxy-6-{2-[(trifluoromethyl)oxy]phenyl}hexan-2-yl]-9a,11a-dimethylhexadecahydro-1H-cyclopenta[1,2-a]phenanthrene-6,7-diol]
solubility at 1 h [2]: 140 µM (≈ 82.4 µg/mL)
half-life at 1 µM [3]: 2.78 h
IC50 (SREBP pathway): 0.33 µM

COc1cccc(F)c1C(O)CCC[C@@H](C)[C@H]1CC[C@H]2[C@H]3[C@H](CC[C@]12C)[C@@]1(C)CC[C@H](O)[C@H](O)[C@@H]1CC3(F)F (stereo partly drawn) [Compound 49, (1R,3aS,3bS,5aR,6R,7S,9aR,9bS,11aR)-4,4-difluoro-1-[(2R)-6-(2-fluoro-6-methoxyphenyl)-6-hydroxyhexan-2-yl]-9a,11a-dimethylhexadecahydro-1H-cyclopenta[1,2-a]phenanthrene-6,7-diol]
pIC50 [1]: 6.30 to 6.70
solubility at 1 h [2]: 281 µM (≈ 155 µg/mL)
half-life at 1 µM [3]: 1.88 h
IC50 (SREBP pathway): 0.06 µM

COc1ccccc1C(O)CCC[C@@H](C)[C@H]1CC[C@H]2[C@H]3[C@H](CC[C@]12C)[C@@]1(C)CC[C@H](O)[C@H](O)[C@@H]1CC3(F)F (stereo partly drawn) [Compound 37, (1R,3aS,3bS,5aR,6R,7S,9aR,9bS,11aR)-4,4-difluoro-1-[(2R)-6-hydroxy-6-(2-methoxyphenyl)hexan-2-yl]-9a,11a-dimethylhexadecahydro-1H-cyclopenta[1,2-a]phenanthrene-6,7-diol]
pIC50 [1]: 6.30 to 6.70
solubility at 1 h [2]: 207 µM (≈ 111 µg/mL)
half-life at 1 µM [3]: 2.19 h
IC50 (SREBP pathway): 0.03 µM

COc1cccc(C(O)CCC[C@@H](C)[C@H]2CC[C@H]3[C@H]4[C@H](CC[C@]23C)[C@@]2(C)CC[C@H](O)[C@H](O)[C@@H]2CC4(F)F)c1F (stereo partly drawn) [Compound 63, (1R,3aS,3bS,5aR,6R,7S,9aR,9bS,11aR)-4,4-difluoro-1-[(2R)-6-(2-fluoro-3-methoxyphenyl)-6-hydroxyhexan-2-yl]-9a,11a-dimethylhexadecahydro-1H-cyclopenta[1,2-a]phenanthrene-6,7-diol]
pIC50 [1]: > 6.70
solubility at 1 h [2]: 147 µM (≈ 81.1 µg/mL)
half-life at 1 µM [3]: > 3.08 h
IC50 (SREBP pathway): 0.121 µM

COc1cc(F)cc(F)c1C(O)CCC[C@@H](C)[C@H]1CC[C@H]2[C@H]3[C@H](CC[C@]12C)[C@@]1(C)CC[C@H](O)[C@H](O)[C@@H]1CC3(F)F (stereo partly drawn) [Compound 98, (1R,3aS,3bS,5aR,6R,7S,9aR,9bS,11aR)-1-[(2R)-6-(4,6-difluoro-2-methoxyphenyl)-6-hydroxyhexan-2-yl]-4,4-difluoro-9a,11a-dimethylhexadecahydro-1H-cyclopenta[1,2-a]phenanthrene-6,7-diol]
pIC50 [1]: > 6.70
solubility at 1 h [2]: 199 µM (≈ 114 µg/mL)
half-life at 1 µM [3]: 4.17 h
IC50 (SREBP pathway): 0.095 µM

COc1ccccc1C(O)CCC[C@@H](C)[C@H]1CC[C@H]2C3=C(F)C[C@H]4[C@@H](O)[C@@H](O)CC[C@]4(C)[C@H]3CC[C@]12C (stereo partly drawn) [Compound 38, (1R,3aR,5aR,6R,7S,9aR,9bR,11aR)-4-fluoro-1-[(2R)-6-hydroxy-6-(2-methoxyphenyl)hexan-2-yl]-9a,11a-dimethyl-2,3,3a,5,5a,6,7,8,9,9a,9b,10,11,11a-tetradecahydro-1H-cyclopenta[1,2-a]phenanthrene-6,7-diol]
solubility at 1 h [2]: 184 µM (≈ 94.8 µg/mL)
half-life at 1 µM [3]: 0.203 h
IC50 (SREBP pathway): 0.11 µM

COc1ncccc1C(O)CCC[C@@H](C)[C@H]1CC[C@H]2[C@H]3[C@H](CC[C@]12C)[C@@]1(C)CC[C@H](O)[C@H](O)[C@@H]1CC3(F)F (stereo partly drawn) [Compound 81, (1R,3aS,3bS,5aR,6R,7S,9aR,9bS,11aR)-4,4-difluoro-1-[(2R)-6-(2-methoxypyridin-3-yl)-6-hydroxyhexan-2-yl]-9a,11a-dimethylhexadecahydro-1H-cyclopenta[1,2-a]phenanthrene-6,7-diol]
pIC50 [1]: > 6.70
solubility at 1 h [2]: 279 µM (≈ 150 µg/mL)
half-life at 1 µM [3]: 1.91 h
IC50 (SREBP pathway): 0.11 µM
